Results reported in PubChem BioAssay (NCI).
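Briefly, cells in 96-well plates were exposed to five compound concentrations for 48 h, and endpoints were estimated by linear interpolation. Here, GI50 denotes the concentration required for 50% inhibition of growth. The concentration for full growth arrest is given as TGI.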

Legend:
Experiment in all cases: NCI tumour cell line growth inhibition, 48 h
SK-MEL-2 melanoma = tested on: SK-MEL-2 melanoma
SF-295 CNS = tested on: SF-295 CNS
OVCAR-3 ovarian = tested on: OVCAR-3 ovarian
EKVX NSCLC = tested on: EKVX NSCLC
TK-10 renal = tested on: TK-10 renal
K-562 leukemia = tested on: K-562 leukemia
OVCAR-4 ovarian = tested on: OVCAR-4 ovarian
HOP-92 NSCLC = tested on: HOP-92 NSCLC
T-47D breast = tested on: T-47D breast
RXF 393 renal = tested on: RXF 393 renal
NCI/ADR-RES ovarian = tested on: NCI/ADR-RES ovarian
MDA-MB-435 = tested on: MDA-MB-435
IGROV1 ovarian = tested on: IGROV1 ovarian
ACHN renal = tested on: ACHN renal
A549 NSCLC = tested on: A549 NSCLC
HCT-15 colon = tested on: HCT-15 colon
NCI-H522 lung = tested on: NCI-H522 lung
OVCAR-5 ovarian = tested on: OVCAR-5 ovarian
HCT-116 colon = tested on: HCT-116 colon
SN12C renal = tested on: SN12C renal
HS 578T breast = tested on: HS 578T breast
786-0 renal = tested on: 786-0 renal
HL-60(TB) leukemia = tested on: HL-60(TB) leukemia
CCRF-CEM leukemia = tested on: CCRF-CEM leukemia
NCI-H460 lung = tested on: NCI-H460 lung
UACC-62 melanoma = tested on: UACC-62 melanoma
HOP-62 NSCLC = tested on: HOP-62 NSCLC
OVCAR-8 ovarian = tested on: OVCAR-8 ovarian
SNB-19 CNS = tested on: SNB-19 CNS
HCC-2998 colon = tested on: HCC-2998 colon
PC-3 prostate = tested on: PC-3 prostate
KM12 colon = tested on: KM12 colon
DU-145 prostate = tested on: DU-145 prostate
UO-31 renal = tested on: UO-31 renal
MDA-MB-231 breast = tested on: MDA-MB-231 breast
RPMI-8226 leukemia = tested on: RPMI-8226 leukemia
COLO 205 colon = tested on: COLO 205 colon
SK-MEL-28 melanoma = tested on: SK-MEL-28 melanoma
UACC-257 melanoma = tested on: UACC-257 melanoma
SW-620 colon = tested on: SW-620 colon
SK-OV-3 ovarian = tested on: SK-OV-3 ovarian
SK-MEL-5 melanoma = tested on: SK-MEL-5 melanoma
CAKI-1 renal = tested on: CAKI-1 renal
LOX IMVI melanoma = tested on: LOX IMVI melanoma
M14 melanoma = tested on: M14 melanoma
SNB-75 CNS = tested on: SNB-75 CNS
U251 CNS = tested on: U251 CNS

For `COc1cc2c(c(OC)c1OC)-c1ncc3cc(OC)c(OC)c(OC)c3c1C2`, the GI50 (SK-MEL-2 melanoma) was 22.9 µM, the TGI (SK-MEL-2 melanoma) was 56.8 µM and the GI50 (SF-295 CNS) was 18.7 µM. The TGI (SF-295 CNS) was 42.4 µM, the GI50 (OVCAR-3 ovarian) was 19.1 µM and the TGI (OVCAR-3 ovarian) was 46.3 µM. The GI50 (EKVX NSCLC) was 23.1 µM, the TGI (EKVX NSCLC) was 66.7 µM and the GI50 (TK-10 renal) was 23.3 µM. It also gave a TGI (TK-10 renal) of 80.6 µM, a GI50 (K-562 leukemia) of 15.3 µM and a TGI (K-562 leukemia) of 50.8 µM. It also gave a GI50 (OVCAR-4 ovarian) of 44.5 µM, a TGI (OVCAR-4 ovarian) of over 100 µM and a GI50 (HOP-92 NSCLC) of 52.6 µM. For the same compound, the TGI (HOP-92 NSCLC) was over 100 µM, the GI50 (T-47D breast) was 50.4 µM and the TGI (T-47D breast) was over 100 µM. The GI50 (RXF 393 renal) was 11.2 µM, the TGI (RXF 393 renal) was 33.1 µM and the GI50 (NCI/ADR-RES ovarian) was 12.1 µM. The TGI (NCI/ADR-RES ovarian) was 51.2 µM, the GI50 (MDA-MB-435) was 20.8 µM and the TGI (MDA-MB-435) was 51 µM. For the same compound, the GI50 (IGROV1 ovarian) was 25.2 µM, the TGI (IGROV1 ovarian) was 63.2 µM and the GI50 (ACHN renal) was 24 µM. It also gave a TGI (ACHN renal) of 78.7 µM, a GI50 (A549 NSCLC) of 20.3 µM and a TGI (A549 NSCLC) of over 100 µM. The GI50 (HCT-15 colon) was 23.4 µM, the TGI (HCT-15 colon) was 83.5 µM and the GI50 (NCI-H522 lung) was 16.1 µM. It also gave a TGI (NCI-H522 lung) of 43.2 µM, a GI50 (OVCAR-5 ovarian) of 22.5 µM and a TGI (OVCAR-5 ovarian) of over 100 µM. For the same compound, the GI50 (HCT-116 colon) was 33.5 µM, the TGI (HCT-116 colon) was over 100 µM and the GI50 (SN12C renal) was 17.6 µM. For the same compound, the TGI (SN12C renal) was 73.7 µM, the GI50 (HS 578T breast) was 29.7 µM and the TGI (HS 578T breast) was 65.6 µM. For the same compound, the GI50 (786-0 renal) was 35.9 µM, the TGI (786-0 renal) was over 100 µM and the GI50 (HL-60(TB) leukemia) was 1.92 µM. It also gave a TGI (HL-60(TB) leukemia) of 46 µM, a GI50 (CCRF-CEM leukemia) of over 100 µM and a TGI (CCRF-CEM leukemia) of over 100 µM. The GI50 (NCI-H460 lung) was 30 µM, the TGI (NCI-H460 lung) was 78.2 µM and the GI50 (UACC-62 melanoma) was 17.4 µM. For the same compound, the TGI (UACC-62 melanoma) was 34 µM, the GI50 (HOP-62 NSCLC) was 35.4 µM and the TGI (HOP-62 NSCLC) was 66.5 µM. For the same compound, the GI50 (OVCAR-8 ovarian) was 6.09 µM, the TGI (OVCAR-8 ovarian) was 34.7 µM and the GI50 (SNB-19 CNS) was 28.9 µM. It also gave a TGI (SNB-19 CNS) of 94.2 µM, a GI50 (HCC-2998 colon) of 16.4 µM and a TGI (HCC-2998 colon) of 30.7 µM. For the same compound, the GI50 (PC-3 prostate) was 44.2 µM, the TGI (PC-3 prostate) was over 100 µM and the GI50 (KM12 colon) was 17.8 µM. It also gave a TGI (KM12 colon) of 63 µM, a GI50 (DU-145 prostate) of 26.6 µM and a TGI (DU-145 prostate) of over 100 µM. It also gave a GI50 (UO-31 renal) of 20.2 µM, a TGI (UO-31 renal) of over 100 µM and a GI50 (MDA-MB-231 breast) of 21.3 µM. The TGI (MDA-MB-231 breast) was 70.8 µM, the GI50 (RPMI-8226 leukemia) was over 100 µM and the TGI (RPMI-8226 leukemia) was over 100 µM. The GI50 (COLO 205 colon) was 25.8 µM, the TGI (COLO 205 colon) was 50.3 µM and the GI50 (SK-MEL-28 melanoma) was 25.4 µM. For the same compound, the TGI (SK-MEL-28 melanoma) was 78.1 µM, the GI50 (UACC-257 melanoma) was 12.1 µM and the TGI (UACC-257 melanoma) was 27.2 µM. The GI50 (SW-620 colon) was 32.4 µM, the TGI (SW-620 colon) was 98.7 µM and the GI50 (SK-OV-3 ovarian) was 47.5 µM. For the same compound, the TGI (SK-OV-3 ovarian) was over 100 µM, the GI50 (SK-MEL-5 melanoma) was 15.5 µM and the TGI (SK-MEL-5 melanoma) was 29.5 µM. For the same compound, the GI50 (CAKI-1 renal) was 22.5 µM, the TGI (CAKI-1 renal) was 74.3 µM and the GI50 (LOX IMVI melanoma) was 15.9 µM. The TGI (LOX IMVI melanoma) was 29.9 µM, the GI50 (M14 melanoma) was 50.7 µM and the TGI (M14 melanoma) was over 100 µM. For the same compound, the GI50 (SNB-75 CNS) was 54.5 µM, the TGI (SNB-75 CNS) was over 100 µM and the GI50 (U251 CNS) was 33 µM. It also gave a TGI (U251 CNS) of over 100 µM.
